Results: ChEMBL document CHEMBL1201862, “PubChem BioAssay data set” (2004)
Values belong to the compound of their own block, whether it stands above or below them. Active and inactive are the calls of the source.

What was measured:
HEK293 [1] = test: TNF Induced NF-kB Luciferase in 293-NF-kB-Luc Stable Cells. [Related pubchem assays: 1266, 1299, 1269, 1373, 1292, 1290, 1302, 1371, 1283, 1270, 1295, 1271, 1375, 1294, 1374, 1281, 1293, 1291, 1289, 1280, 465, 1368, 1364, 1282, 1372, 1365, 1369, 1370, 1367, 1366 ]; assay type: functional, cell-based; settings: Homo sapiens
HEK293 [2] = test: PMA/Ionomycin induced NF-kB luciferase assay in 293- NF-kB-Luc stable cells. [Related pubchem assays: 1299, 1270, 1295, 1375, 1287, 1281, 1293, 1291, 1289, 1280, 465, 1364, 1282, 1372, 1365, 1370, 1367, 1366, 1269, 1373, 1292, 1290, 1302, 1371, 1283, 1271, 1294, 1374, 1368, 1369 ]; assay type: functional, cell-based; settings: Homo sapiens
HEK293 [3] = test: Cytotoxicity assay in HEK293 cells. [Related pubchem assays (depositor defined):AID1266, AID1269, AID1270, AID1271, AID1280, AID1281, AID1282, AID1283, AID1287, AID1289, AID1290, AID1291, AID1292, AID1293, AID1294, AID1295, AID1299, AID1302, AID1364, AID1365, AID1366, AID1367, AID1369, AID1370, AID1371, AID1372, AID1373, AID1374, AID1375, AID1384 …; assay type: functional, cell-based; settings: Homo sapiens
[4] = biological target: Luciferin 4-monooxygenase (Photinus pyralis, UniProt P08659); test: In vitro luciferase assay using purified luciferase. [Related pubchem assays: 1299, 1270, 1295, 1375, 1287, 1281, 1293, 1291, 1289, 1280, 465, 1364, 1282, 1372, 1365, 1370, 1367, 1366, 1266, 1373, 1292, 1290, 1302, 1371, 1283, 1271, 1294, 1374, 1368, 1369 ]
HEK293 [5] = test: PMA/Ionomycin-induced IL-8 production in HEK293- NF-kB-Luc stable cells. [Related pubchem assays: 1299, 1295, 1375, 1287, 1281, 1293, 1291, 1289, 1280, 465, 1364, 1282, 1372, 1365, 1367, 1366, 1266, 1269, 1373, 1292, 1290, 1302, 1371, 1283, 1271, 1294, 1374, 1368, 1369 ]; assay type: functional, cell-based; settings: Homo sapiens
[6] = biological target: T1, Eukaryotic translation initiation factor 2-alpha kinase 3 (Homo sapiens, UniProt Q9NZJ5); test: Dose response cell-based high-throughput screening assay to measure PERK inhibition. [Related pubchem assays: 1416 ]; assay type: functional
[7] = biological target: T2, Corticotropin-releasing factor receptor 2/Corticotropin-releasing factor-binding protein (Homo sapiens, UniProt P24387+Q13324); test: activators of CRF receptor 2 with binding protein – uHTS hits, confirmation (AID 602473); assay type: functional; settings: read-out: EC50_Mean
T2 sequence (Q13324 whole entry): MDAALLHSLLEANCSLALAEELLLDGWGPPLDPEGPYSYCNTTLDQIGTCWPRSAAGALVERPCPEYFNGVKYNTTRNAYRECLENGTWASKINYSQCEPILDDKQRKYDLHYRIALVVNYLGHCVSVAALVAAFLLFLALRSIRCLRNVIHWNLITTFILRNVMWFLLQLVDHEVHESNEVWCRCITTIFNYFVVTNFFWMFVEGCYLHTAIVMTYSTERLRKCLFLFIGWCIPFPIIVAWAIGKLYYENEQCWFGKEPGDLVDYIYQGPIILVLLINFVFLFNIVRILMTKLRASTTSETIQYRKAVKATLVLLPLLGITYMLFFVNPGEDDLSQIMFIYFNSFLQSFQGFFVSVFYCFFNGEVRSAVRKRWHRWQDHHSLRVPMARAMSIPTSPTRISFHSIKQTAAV
T2 sequence (P24387 whole entry): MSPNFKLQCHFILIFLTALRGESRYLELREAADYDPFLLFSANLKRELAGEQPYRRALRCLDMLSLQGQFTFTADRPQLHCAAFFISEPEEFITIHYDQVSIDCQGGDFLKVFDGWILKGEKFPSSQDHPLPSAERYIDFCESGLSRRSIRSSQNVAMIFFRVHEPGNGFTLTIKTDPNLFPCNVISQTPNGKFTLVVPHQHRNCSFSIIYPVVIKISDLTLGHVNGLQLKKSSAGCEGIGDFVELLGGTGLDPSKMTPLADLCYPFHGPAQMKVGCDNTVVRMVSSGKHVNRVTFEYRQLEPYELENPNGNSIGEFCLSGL

[8] = biological target: T2, Corticotropin-releasing factor receptor 2/Corticotropin-releasing factor-binding protein; test: Dose Response confirmation of uHTS hits for small molecule antagonists of the CRF-binding protein and CRF-R2 receptor complex.; assay type: functional; settings: read-out: IC50_Mean
[9] = biological target: T1, Eukaryotic translation initiation factor 2-alpha kinase 3; test: Counterscreen assay for PERK inhibitors: Dose response cell-based high throughput screening assay to measure inhibition of PERK at 6 hours. [Related pubchem assays: 1522, 1416 ]; assay type: functional
[10] = viability loss in Vero cells – cytotoxicity control for Vif-APOBEC3G degradation inhibitor project, dose response (AID 1117358); assay type: functional; settings: Vero
[11] = biological target: G2/mitotic-specific cyclin-B1 (Homo sapiens, UniProt P14635); test: Counterscreen assay for inhibitors of Wee1 degradation: dose response cell-based assay to identify inhibitors of cyclin B degradation. [Related pubchem assays: 1410, 1321 ]; assay type: functional
Wee1-like protein kinase = Wee1-like protein kinase (Homo sapiens, UniProt P30291); test: Dose Response Cell-based Assay for Inhibitors of Wee1 Degradation. [Related pubchem assays: 1410, 1321 ]; assay type: functional
[12] = biological target: Melanin-concentrating hormone receptor 1 (Homo sapiens, UniProt Q99705); test: Late-stage fluorescence-based counterscreen for antagonists of the G-protein coupled receptor 7 (GPR7): cell-based dose response assay to identify antagonists of the melanin-concentrating hormone receptor 1 (MCHR1). [Related pubchem assays (depositor defined):AID1861, AID1880, AID1952, AID2148, AID2251, AID2257, AID485339]; assay type: functional;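 note: stimulated with 30 nM MCH peptide agonist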
Sequence of Melanin-concentrating hormone receptor 1 (Q99705 whole entry): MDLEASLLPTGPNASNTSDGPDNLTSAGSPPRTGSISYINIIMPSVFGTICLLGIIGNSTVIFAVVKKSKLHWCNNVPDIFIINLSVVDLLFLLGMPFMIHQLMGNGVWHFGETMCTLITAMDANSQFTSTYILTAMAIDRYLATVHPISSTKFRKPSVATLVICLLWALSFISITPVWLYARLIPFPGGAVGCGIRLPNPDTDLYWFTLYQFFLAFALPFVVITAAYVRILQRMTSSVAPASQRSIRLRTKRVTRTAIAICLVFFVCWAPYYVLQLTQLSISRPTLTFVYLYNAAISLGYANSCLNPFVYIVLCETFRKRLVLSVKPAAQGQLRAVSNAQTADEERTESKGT

T1 sequence (Q9NZJ5 whole entry): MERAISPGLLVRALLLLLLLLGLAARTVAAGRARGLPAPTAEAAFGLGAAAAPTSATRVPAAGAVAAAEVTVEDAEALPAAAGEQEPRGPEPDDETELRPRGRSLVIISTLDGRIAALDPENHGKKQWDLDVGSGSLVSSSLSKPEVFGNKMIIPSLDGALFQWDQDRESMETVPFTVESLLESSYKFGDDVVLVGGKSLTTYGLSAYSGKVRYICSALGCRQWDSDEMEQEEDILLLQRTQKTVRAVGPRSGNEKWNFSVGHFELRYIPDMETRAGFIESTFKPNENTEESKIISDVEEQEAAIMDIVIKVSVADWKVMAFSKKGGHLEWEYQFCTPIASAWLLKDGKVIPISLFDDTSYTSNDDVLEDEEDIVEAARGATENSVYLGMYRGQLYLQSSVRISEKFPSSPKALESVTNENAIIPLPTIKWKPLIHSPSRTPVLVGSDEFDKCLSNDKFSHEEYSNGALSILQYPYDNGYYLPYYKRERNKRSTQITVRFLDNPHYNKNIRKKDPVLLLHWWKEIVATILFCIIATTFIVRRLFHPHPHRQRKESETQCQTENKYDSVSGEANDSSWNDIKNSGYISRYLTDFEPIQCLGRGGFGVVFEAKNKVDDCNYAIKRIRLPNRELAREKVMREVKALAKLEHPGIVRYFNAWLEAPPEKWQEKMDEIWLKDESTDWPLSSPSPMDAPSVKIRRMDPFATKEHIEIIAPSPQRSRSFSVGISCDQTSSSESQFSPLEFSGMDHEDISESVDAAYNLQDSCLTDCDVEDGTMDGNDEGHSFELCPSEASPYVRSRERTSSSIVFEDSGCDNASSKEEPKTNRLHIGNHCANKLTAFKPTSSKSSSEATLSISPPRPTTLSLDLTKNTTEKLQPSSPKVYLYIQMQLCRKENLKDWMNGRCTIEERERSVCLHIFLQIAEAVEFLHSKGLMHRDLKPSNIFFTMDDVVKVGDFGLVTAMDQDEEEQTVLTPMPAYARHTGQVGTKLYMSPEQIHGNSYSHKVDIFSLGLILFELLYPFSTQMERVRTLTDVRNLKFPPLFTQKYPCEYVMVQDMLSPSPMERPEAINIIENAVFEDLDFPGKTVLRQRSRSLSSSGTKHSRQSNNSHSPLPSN
Sequence of Wee1-like protein kinase (P30291 whole entry): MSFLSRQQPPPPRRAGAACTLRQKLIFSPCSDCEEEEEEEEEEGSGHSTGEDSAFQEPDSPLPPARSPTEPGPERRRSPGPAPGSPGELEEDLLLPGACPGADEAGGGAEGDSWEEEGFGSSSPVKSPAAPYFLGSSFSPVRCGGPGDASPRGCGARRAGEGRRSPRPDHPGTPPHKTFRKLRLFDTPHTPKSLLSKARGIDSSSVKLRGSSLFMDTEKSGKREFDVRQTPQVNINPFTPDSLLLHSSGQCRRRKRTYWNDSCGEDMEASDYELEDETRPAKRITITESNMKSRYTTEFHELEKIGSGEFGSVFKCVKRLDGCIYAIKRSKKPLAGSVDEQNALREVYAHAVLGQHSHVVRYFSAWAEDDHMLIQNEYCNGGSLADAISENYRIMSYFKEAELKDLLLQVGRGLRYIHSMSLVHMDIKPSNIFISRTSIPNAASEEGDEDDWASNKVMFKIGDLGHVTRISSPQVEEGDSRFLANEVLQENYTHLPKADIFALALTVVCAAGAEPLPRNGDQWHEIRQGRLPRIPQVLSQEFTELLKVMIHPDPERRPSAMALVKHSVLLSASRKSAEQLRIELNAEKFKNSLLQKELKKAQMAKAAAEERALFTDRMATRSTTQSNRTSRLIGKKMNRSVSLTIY
Sequence of Luciferin 4-monooxygenase (P08659 whole entry): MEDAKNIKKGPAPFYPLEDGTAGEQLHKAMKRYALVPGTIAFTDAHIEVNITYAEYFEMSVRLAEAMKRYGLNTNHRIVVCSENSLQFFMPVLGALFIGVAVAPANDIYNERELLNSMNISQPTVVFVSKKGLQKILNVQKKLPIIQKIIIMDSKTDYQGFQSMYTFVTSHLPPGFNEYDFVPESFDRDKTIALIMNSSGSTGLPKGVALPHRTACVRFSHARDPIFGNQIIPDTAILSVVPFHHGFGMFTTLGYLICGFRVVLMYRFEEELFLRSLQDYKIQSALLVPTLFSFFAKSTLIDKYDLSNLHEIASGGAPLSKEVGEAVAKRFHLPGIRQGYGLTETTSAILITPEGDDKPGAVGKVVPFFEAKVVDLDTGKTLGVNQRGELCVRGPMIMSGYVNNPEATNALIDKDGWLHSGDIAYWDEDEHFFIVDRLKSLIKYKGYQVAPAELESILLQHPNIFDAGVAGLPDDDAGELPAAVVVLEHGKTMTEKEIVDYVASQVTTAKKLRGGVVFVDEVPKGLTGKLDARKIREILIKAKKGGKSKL
Sequence of G2/mitotic-specific cyclin-B1 (P14635 whole entry): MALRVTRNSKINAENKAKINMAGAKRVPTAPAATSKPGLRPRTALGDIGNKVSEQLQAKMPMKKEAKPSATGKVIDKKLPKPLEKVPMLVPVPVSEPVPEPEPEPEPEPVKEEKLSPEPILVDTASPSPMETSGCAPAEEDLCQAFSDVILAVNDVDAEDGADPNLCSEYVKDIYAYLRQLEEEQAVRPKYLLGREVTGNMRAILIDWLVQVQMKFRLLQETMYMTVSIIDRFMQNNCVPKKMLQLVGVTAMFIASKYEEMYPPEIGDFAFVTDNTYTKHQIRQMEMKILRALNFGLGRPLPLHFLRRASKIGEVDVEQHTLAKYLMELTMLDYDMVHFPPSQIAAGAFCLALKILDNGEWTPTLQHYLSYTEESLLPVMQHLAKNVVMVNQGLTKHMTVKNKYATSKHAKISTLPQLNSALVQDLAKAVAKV

SMILES: COc1cc(NC(=O)c2cccc3c2C(=O)N(Cc2cccnc2)C3)cc(OC)c1OC
EC50 (HEK293 [1]): > 8 µM (not active)
EC50 (HEK293 [2]): 0.744 µM (active)
EC50 (HEK293 [3]): > 8 µM (inactive)
EC50 [4]: > 8 µM (not active)
EC50 (HEK293 [5]): 13.9 µM (not active)

EC50 [6]: > 55.7 µM (not active)
EC50 [7]: > 53 µM (inactive)
IC50 [8]: > 47.1 µM (inactive)
EC50 [9]: > 55.7 µM (not active)
SMILES: C=CCN(c1ccccc1)S(=O)(=O)c1cccc(C(=O)O)c1

EC50 [11]: > 49.7 µM (not active)
EC50 (Wee1-like protein kinase): > 49.7 µM (not active)
SMILES: COc1ccc(/C=N/NC(=O)c2ccc3ccccc3c2)cc1OS(=O)(=O)c1ccc(NC(C)=O)cc1
CC50 [10]: > 40 µM (active)

IC50 [12]: 4 µM (active)
SMILES: CCOC(=O)c1ccc(-n2ncc(Cl)c(Oc3ccc(OC)cc3)c2=O)cc1
